Experimental data published in patent publication US20100034836A1, “COMPOSITIONS AND METHODS FOR THE DIAGNOSIS AND ALLEVIATION OF TUMOR” (priority 2006, published 2010).

Experiments:
ΔTASK121-ER = ΔTASK121-ER (Mus musculus, UniProt P19785, G525R); conditions: NIH 3T3 ΔTASK121-ER cells, minimal media, 0-2000 nM 4OHT for 24 hours
Description: (§1) To identify genes that are regulated specifically in response to TASK121 activation and not as a result of full mitogenic stimulation, TASK121 was conditionally activated using the previously described estrogen receptor (ER) fusion protein system (Samuels et al., Mol Cell Biol 13:6241-52 (1993)). The catalytic domains of wild-type and oncogenic human TASK121 (denoted as ΔTASK121 and ΔTASK121^V600E, respectively) were fused to a variant of the murine ER hormone-binding domain in which a G525R mutation switches responsiveness from endogenous estrogen to a synthetic antagonist, 4-hydroxytamoxifen (4OHT) (Danielian, et al., Mol Endocrinol 7:232-40 (1993)). […] NIH 3T3 cells expressing ΔTASK121-ER, ΔTASK121^V600E-ER or empty vector were derived by retroviral infection and several independent clones were characterized to ensure against a clonal selection bias. To determine effective doses for inducing TASK121 kinase activity, ΔTASK121-ER and ΔTASK121^V600EER cells were cultured in minimal media and stimulated with 0-2000 nM 4OHT for 24 hours. […] Accumulation of ΔTASK121-ER and ΔTASK121^V600E-ER chimeric proteins and corresponding ERK1/2 phosphorylation were detected by immunoblotting.

ΔTASK121^V600E-ER = ΔTASK121^V600E-ER (Mus musculus, UniProt P19785, G525R); conditions: NIH 3T3 ΔTASK121^V600E-ER cells, minimal media, 0-2000 nM 4OHT for 24 hours
ΔTASK121^V600E-ER, sequence (P19785 315-551 G525R): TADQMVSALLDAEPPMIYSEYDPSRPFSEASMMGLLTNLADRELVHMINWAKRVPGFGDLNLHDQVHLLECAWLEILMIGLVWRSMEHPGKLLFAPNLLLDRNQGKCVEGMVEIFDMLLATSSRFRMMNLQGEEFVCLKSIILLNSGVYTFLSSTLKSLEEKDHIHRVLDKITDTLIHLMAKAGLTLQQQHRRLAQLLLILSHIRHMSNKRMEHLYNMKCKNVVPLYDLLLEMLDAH
ΔTASK121^V600E-ER, sequence (P15056 457-717 V600E partner limits assumed): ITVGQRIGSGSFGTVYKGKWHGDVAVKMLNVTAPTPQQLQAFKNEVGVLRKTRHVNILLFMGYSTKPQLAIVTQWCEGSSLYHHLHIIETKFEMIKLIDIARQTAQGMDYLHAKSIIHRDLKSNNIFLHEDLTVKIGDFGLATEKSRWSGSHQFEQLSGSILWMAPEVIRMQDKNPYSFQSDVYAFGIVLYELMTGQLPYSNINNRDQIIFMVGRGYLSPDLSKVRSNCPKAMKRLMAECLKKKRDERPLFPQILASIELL
Description: as §1

ΔTASK121^V600E-ER cells = experiment: Morphological transformation of 3T3 cells upon 4OHT induction; type: cell-based; conditions: 200 nM 4OHT, within 24 hours
tumor = conditions: nude mouse tumor model (Teicher et al. 2002); cited from earlier work
MEK1/2 = test system: MEK1/2
Method: Experiments were performed to identify the TASK121 downstream signals that are important for TASK122 expression. A375, 928-MEL, COL0205 and SK23-MEL cell lines were characterized for TASK121 and RAS activating mutations and TASK122 expression was measured by immunoblotting of these tumors cells when cultured in the presence or absence of the MEK1/2 inhibitor, U0126 (Favata et al., J Biol Chem 273:18623-32 (1998)).

endogenous TASK121 = experiment: Dox-induced shRNA knockdown in A375 melanoma cells, immunoblotting; type: cell-based
Description: The regulation of TASK122 by TASK 121 was directly addressed in an RNAi knockdown experiment. A375 melanoma cells, which contain an endogenous TASK121^V600E allele, were infected with a retrovirus expressing either TASK121 specific shRNAs or a control firefly Luciferase shRNA. Hairpin oligonucleotides used in this study are as follows:
In this system, the Tet repressor protein binds a modified polIII promoter thereby preventing shRNA expression. However, in the presence of a tetracycline analog, doxycycline (Dox), the Tet repressor protein is released from the promoter resulting in shRNA transcription and knockdown of endogenous TASK121 or luciferase expression.

[1] = 10 μM U0126, A375, 928-MEL, COL0205 and SK23-MEL cell lines

ΔTASK121-ER, sequence (P19785 315-551 G525R limits assumed): as the sequence (P19785 315-551 G525R) above
ΔTASK121-ER, sequence (P15056 457-717 partner limits assumed): as the sequence (P15056 457-717 V600E partner limits assumed) above, with E144V counted along it

With 4-hydroxytamoxifen [4OHT] the “4OHT concentration at which TASK121-mediated signaling was maximal” value (ΔTASK121-ER) was 100 nM, the “4OHT concentration at which TASK121-mediated signaling was maximal” value (ΔTASK121^V600E-ER) was 10 nM and the cell morphology (ΔTASK121^V600E-ER cells) was “refractile and spindle-shaped phenotype”.

In the case of `Cl.Cn1cc(C2=C(c3cn(C4CCN(Cc5ccccn5)CC4)c4ccccc34)C(=O)NC2=O)c2ccccc21` [317615-HCL], the anti-tumor effect (tumor) is given as “anti-tumor effect”.

With `N#CC(=C(/N)Sc1ccccc1N)/C(C#N)=C(\N)Sc1ccccc1N` [U0126] the TASK122 expression (MEK1/2; 10 μM U0126, inhibition of ERK1/2 phosphorylation) was “abolished”, the ERK1/2 phosphorylation (MEK1/2; [1]) was “decreased” and the “total ERK2 levels” value (MEK1/2; [1]) was “unaffected”.

B1: Luciferase shRNA: control firefly Luciferase shRNA, SEQ ID NO: 9 (sense) and 10 (antisense) (nucleic acid)
sense: GATCCCCCTTACGCTGAGTACTTCGATTCAAGAGATCGAAGTACTCAGCGTAAGTTTTTTGGAAA
antisense: AGCTTTTCCAAAAAACTTACGCTGAGTACTTCGATCTCTTGAATCGAAGTACTCAGCGTAAGGGG
modifications: the letters are possibly those of the target site
With B1 the TASK122 levels (endogenous TASK121) was “did not alter”.

B2: TASK121 shRNA: hairpin oligonucleotides SEQ ID NO: 7 (sense) and SEQ ID NO: 8 (antisense), retrovirally expressed, Tet-regulated (nucleic acid)
sense: GATCCCCAGAATTGGATCTGGATCATTTCAAGAGAATGATCCAGATCCAATTCTTTTTTTGGAAA
antisense: AGCTTTTCCAAAAAAAGAATTGGATCTGGATCATTCTCTTGAAATGATCCAGATCCAATTCTGGG
modifications: the letters are possibly those of the target site
In the case of B2, the TASK122 levels (endogenous TASK121) is reported as “significant reduction”, the “phosphorylated ERK1/2” value (endogenous TASK121) is reported as “significant reduction” and the “total ERK2 levels” value (endogenous TASK121) is reported as “remained unchanged”.
